Experimental data reported in ChEMBL document CHEMBL1129088, “Synthesis and antitumor activity of novel duocarmycin derivatives” (Bioorg Med Chem Lett, 1996).

How the values were obtained:
HeLa = assay: In vitro cytotoxicity against HeLaS3 cell lines.; assay type: functional, cell-based; settings: Homo sapiens
Mus musculus [1] = assay: Compound was evaluated in vivo for the antitumor activity against murine sarcoma 180 cell lines at the specified dose 0.5 mg/kg; assay type: functional
Mus musculus [2] = assay: Compound was evaluated in vivo for the antitumor activity against murine sarcoma 180 cell lines at the specified dose 1.0 mg/kg; assay type: functional
Mus musculus [3] = assay: Compound was evaluated in vivo for the antitumor activity against murine sarcoma 180 cell lines at the specified dose 2.0 mg/kg; assay type: functional
Mus musculus [4] = assay: Compound was evaluated in vivo for the antitumor activity against murine sarcoma 180 cell lines at the specified dose 4.0 mg/kg; assay type: functional
Mus musculus [5] = assay: Compound was evaluated in vivo for the antitumor activity against murine sarcoma 180 cell lines at the specified dose 8.0 mg/kg; assay type: functional
Mus musculus [6] = assay: Compound was evaluated in vivo for the antitumor activity against murine sarcoma 180 cell lines at the specified dose 16 mg/kg; assay type: functional
Mus musculus [7] = assay: Compound was evaluated in vivo for the antitumor activity against murine sarcoma 180 cell lines at the specified dose 1 mg/kg; assay type: functional
Mus musculus [8] = assay: Compound was evaluated in vivo for the antitumor activity against murine sarcoma 180 cell lines at the specified dose 0.25 mg/kg; assay type: functional

Structure (SMILES)	IC50 (HeLa)	T/C (Mus musculus [1])	T/C (Mus musculus [2])	T/C (Mus musculus [3])	T/C (Mus musculus [4])	T/C (Mus musculus [5])	T/C (Mus musculus [6])	T/C (Mus musculus [7])	T/C (Mus musculus [8])
COC(=O)[C@]1(C)Nc2c(OC(=O)N(C)C)cc3c(c2C1=O)[C@H](CBr)CN3C(=O)c1cc2cc(OC)ccc2o1	400 nM	0.26	0.13	–	–	–	–	–	–
COC(=O)Nc1ccc2[nH]c(C(=O)N3C[C@@H](CBr)c4c3cc(OC(=O)N(C)C)c3c4C(=O)[C@](C)(C(=O)OC)N3)cc2c1	584 nM	–	–	0.31	0.13	–	–	–	–
CNc1ccc(/C=C/C(=O)N2C[C@@H](CBr)c3c2cc(OC(=O)N(C)C)c2c3C(=O)[C@](C)(C(=O)OC)N2)cc1	720 nM	–	–	–	0.18	0.1	0.055	–	–
COC(=O)[C@]1(C)Nc2c(OC(=O)N(C)C)cc3c(c2C1=O)[C@H](CBr)CN3C(=O)COc1ccc(OC)cc1	98 nM	–	–	–	0.24	0.16	0.076	–	–
COC(=O)[C@@]1(C)C(=O)c2c3c(cc(O)c2N1C(=O)N(C)C)N(C(=O)c1cc2cc(OC)c(OC)c(OC)c2[nH]1)C[C@H]3CBr	56 nM	0.13	–	–	–	–	–	0.087	0.31
COC(=O)[C@]1(C)Nc2c(OC(=O)N(C)C)cc3c(c2C1=O)[C@H](CBr)CN3C(=O)/C=C/c1ccc(OC)cc1	510 nM	–	–	–	0.19	0.14	0.057	–	–
COC(=O)[C@]1(C)Nc2c(O)cc3c(c2C1=O)[C@H](CBr)CN3C(=O)c1cc2cc(OC)c(OC)c(OC)c2[nH]1	0.028 nM	–	–	–	–	–	–	–	0.024
